The record followed here is PubChem BioAssay AID2305 (GlaxoSmithKline (GSK), 2010).

For this assay, the system named is P. falciparum 3D7 growth, pLDH absorbance. As to the kind of experiment: P. falciparum 3D7 growth inhibition, dose response, strain 3D7 (AID 2305).

Molecules are shown by their SMILES.

For orientation: IC50 means the midpoint of a concentration-inhibition curve. A lower IC50 goes with greater potency in that assay. As for `COc1ccc2ncc(F)c([C@H](O)CN3CCC(NCc4ccc5c(c4)OCCO5)CC3)c2c1`, the IC50 amounted to 150 nM.

For `OC1CCCN(Cc2ccc(-c3ccc(-c4nc5ccc(F)cc5[nH]4)cc3)cc2)C1` (centres undefined), the IC50 was found to be 850 nM.

As for `COc1ccc2[nH]cc(C3CCN(CCC4CCN(C(=O)/C=C/c5ccc(Cl)c(Cl)c5)CC4)CC3)c2c1`, the IC50 is 860 nM.

The molecule `O=C(Nc1ccc2c(c1)OCO2)NC1CCN(c2ccnc(NCc3ccc(F)cc3)n2)CC1` displayed an IC50 of 940 nM.

Molecule `Cc1nc(Nc2cc(Cl)ccc2O)nc(Nc2cc(Cl)ccc2O)c1[N+](=O)[O-]` had an IC50 of 30 nM.

In turn, `O=C(/C=C/c1ccc(Cl)c(Cl)c1)NCCCCCN1CCCC(CNC(=O)c2sc3ccccc3c2Cl)C1` (centres undefined) had a half-inhibitory concentration (IC50) of 870 nM.

As to `O=C(/C=C/c1ccccc1Cl)Nc1ccc(Br)c(OCCN2CCN(CCN3CCCC3)CC2)c1`, the IC50 turned out to be 650 nM.

The molecule `O=C(Cc1ccccn1)Nc1cccc(-c2cccc(-c3nc4ccc(C(F)(F)F)cc4[nH]3)c2)c1` gave an IC50 of 610 nM.

Regarding `COc1ccc2c(NN=Cc3cccnc3)ccnc2c1`, the IC50 was 680 nM.

For `Cc1nc(C)c(-c2ccc(Oc3ccc(OC(F)(F)F)cc3)cc2)c(OC(=O)N(CCNC(C)C)C(C)C)c1Br`, the IC50 turned out to be 170 nM.

`COc1ccc(-c2cnc(N)c(-c3ccc(O)c(OC)c3)c2)cn1` yielded an IC50 of 880 nM. This IC50 is about 5.2-fold higher than that of the molecule before.

`O=C(Nc1ccc(OC2CCN(Cc3ccccc3)CC2)c(Cl)c1)c1ccco1` came in with an IC50 of 410 nM.

In turn, `Cc1cc(NC(=O)c2ccco2)ccc1OC1CCN(Cc2ccc(C#N)cc2)CC1` registered a 50% inhibitory concentration (IC50) of 500 nM.

For the molecule `COc1ccc(-c2ccc(CNC(=O)c3ccc(C#N)cc3)c(F)c2)cc1CN1CCCN(C)CC1`, the half-maximal inhibitory concentration (IC50) amounted to 1140 nM.

`COc1cc2nccc(Nc3cc(C)cc(O)c3)c2cc1OC` displayed an IC50 of 910 nM.

`CCc1ccc(-c2cnc(N)c3cc(-c4ccnc(N)n4)ccc23)cc1` registered an IC50 of 1350 nM.

As to `O=C(Nc1ccc(-c2ccc(-c3nc4ccc(C(F)(F)F)cc4[nH]3)s2)cc1)c1cnc[nH]1`, the IC50 stood at 670 nM.

In the case of `O=C(NCCCCN1CCC(c2ccc3c(c2OCC(O)c2ccc(Cl)cc2)CCCC3)CC1)c1ccc(-c2ccc(C(F)(F)F)cc2)cc1` (centres undefined), the IC50 worked out at 1040 nM. This IC50 is about 1.6-fold higher than that of the molecule before.

Molecule `O=C1COC(c2ccccc2)(c2ccccc2)CN1CC1CCN(Cc2ccc(O)cc2Cl)C1` (centres undefined) had an IC50 of 1000 nM.

`COc1cc(NCCCNC(=O)c2cc3c(Cl)cc(Cl)cc3[nH]2)nc2ccccc12` displayed an IC50 of 140 nM.

For `O=C(Nc1cc(Cl)ccc1O)c1cc(-c2ccccc2O)no1`, the IC50 was found to be 1090 nM. This IC50 is about 7.8-fold higher than that of the molecule before.

In the case of `CS(=O)(=O)NCCCNCc1cccc(-c2csc(-c3nc4ccccc4[nH]3)c2)c1`, the IC50 came out at 1010 nM. This IC50 and that of the molecule before are within 1.5-fold of each other.

On to `CC[C@H](NC(=O)c1c(CN2CCC(N3CCCCC3)CC2)c(-c2ccccc2)nc2c(Cl)c(O)ccc12)c1ccccc1`, for which the IC50 was 730 nM.

For `CCn1c(=O)c(C(=O)Nc2cc(Cl)c(OC)cc2OC)nc2ccccc21`, the IC50 was found to be 240 nM.

Turning to `Cc1ccc(C(=O)Nc2ccc(OC3CCN(CCC(C)C)C3)c(Cl)c2)cc1` (centres undefined), the IC50 is 990 nM.

`COc1ccc2nc(C)cc(Nc3ccc(Cl)c(Cl)c3)c2c1` yielded an IC50 of 440 nM.

`CC(CCc1ccc(OCc2ccccc2)cc1)NCC(O)c1ccccc1` (centres undefined): the IC50 was 1100 nM.

`CC1CCc2sc(-c3nnc(SC(C)C(=O)NC4CC4)o3)cc2C1` (centres undefined) returned an IC50 of 1210 nM.

Molecule `CC(CC(=O)NCC1(c2ccc(F)cc2Cl)CCOCC1)C(=O)c1ccc(Cl)cc1` (centres undefined) had an IC50 of 860 nM. The IC50 values of the last two molecules are within 1.5-fold of each other.

For `CC(NC(=O)c1cc(-c2ccccc2)nc2c1cnn2C(C)C)C1CC1` (centres undefined), the half-inhibitory concentration (IC50) is 1280 nM. This IC50 and that of the molecule before are within 1.5-fold of each other.

`CC(C)(C)c1ccc2oc(=O)n(C3CCN(C(=O)c4ccc([N+](=O)[O-])o4)CC3)c2c1` displayed an IC50 of 820 nM. This IC50 is about 1.6-fold lower than that of the molecule before.

`Cc1sc2ncnc(Sc3nc4ccccc4[nH]3)c2c1C` displayed an IC50 of 260 nM.

In the case of `Cc1nnc2c(N(C(=O)NCCc3ccccc3)C(=O)NCCc3ccccc3)cc3cc(Cl)ccc3n12`, the IC50 turned out to be 950 nM. This IC50 is about 3.7-fold higher than that of the molecule before.

In turn, `COc1ccc2ncc(F)c(CCN3C[C@H](CNCc4ccc5c(c4)OCCO5)[C@H](O)C3)c2n1` registered an IC50 of 930 nM. The IC50 values of the last two molecules are within 1.5-fold of each other.

In turn, `Cc1c(C(=O)[C@@H]2C[C@H]2CN2CCC(N3CCCC3)CC2)sc2ccccc12` displayed an IC50 of 1400 nM.

`COc1cc2nc(N3CCC(CNC(=O)c4cc(Br)c(Br)s4)CC3)nc(N)c2cc1OC` returned an IC50 of 710 nM.

Turning to `CC(C)CNCc1cccc(-c2cccc(CNc3ccc4ncccc4c3)c2)c1`, the half-maximal inhibitory concentration (IC50) turned out to be 950 nM.

`O=[N+]([O-])c1cccc(CNCC2CCN(Cc3ccc(Cl)c(Cl)c3)CC2)c1` registered a concentration for half-maximal inhibition (IC50) of 910 nM.

Take `CC(Cc1ccc(OCc2ccccc2)cc1)Nc1nc2ccccc2c(=O)[nH]1` (centres undefined): the IC50 came to 570 nM.

On to `CCN(Cc1ccccc1)CC(O)c1ccc(Cl)c(Cl)c1` (centres undefined), for which the IC50 was determined as 180 nM.

Regarding `Cc1cccc2[nH]c(-c3ccc(-c4cccc(C(=O)N5CCCCC5C(C)O)c4)s3)nc12` (centres undefined), the IC50 is 640 nM.

As to `O=C(Nc1cccc(CN2CCCN(Cc3ccsc3)CC2)c1)c1ccc(-c2ccccc2)cc1`, the IC50 is 1340 nM.

`Nc1nc(N)c2c(Oc3ccc(Cl)c(Cl)c3)cccc2n1` showed an IC50 of 870 nM.

On to `COc1cccc(C(=O)NCc2cccs2)c1Oc1ccccc1`, for which the IC50 came out at 60 nM.

For the molecule `COc1ccc(Oc2ccc(-c3c(C)[nH]c(C)cc3=O)cc2)cc1`, the IC50 amounted to 610 nM.

Take `CC(=O)Nc1ccc(OCCCN(Cc2ccccc2C(F)(F)F)c2ccc(C(F)(F)F)c(C#N)c2)c(Cl)c1`: the IC50 was determined as 1450 nM. Compared with the last molecule, the IC50 is about 2.4-fold higher.

`CCOc1cc(Cc2cnc(N)nc2N)ccc1OC`: the IC50 was determined as 1250 nM.

In the case of `CCc1cccc(-n2c(=O)c3cccnc3n2CC(=O)NCc2ccccc2Cl)c1`, the IC50 was found to be 740 nM. This IC50 is about 1.7-fold lower than that of the molecule before.

As to `O=C(c1cncc(-c2ccccc2)c1)N(Cc1cncn1Cc1ccccc1F)CC1CC1`, the IC50 worked out at 800 nM.

`CCc1ccc(CN2CCC(C(=O)Nc3ccc(-c4nc5ccccc5[nH]4)cc3)CC2)o1`: the 50% inhibitory concentration (IC50) was found to be 610 nM.

`c1ccc(CNCc2ccc(-c3cccc(-c4nc5ccccc5[nH]4)c3)cc2)cc1` registered an IC50 of 420 nM.

Molecule `Cn1c(O)c(N=NC(=S)N2CCOCC2)c2ccccc21` gave an IC50 of 900 nM. Against the preceding molecule, the IC50 is about 2.1-fold higher.

Turning to `CCc1c[nH]c2c(N3CCCC3=O)cc(C(=O)N[C@@H](Cc3ccccc3)[C@H](O)CNC(C)(C)CCCC(C)C)cc12`, the 50% inhibitory concentration (IC50) was determined as 510 nM.

With `COc1cc(-c2cc3cc(Cl)c(Cl)cc3[nH]2)ccc1C(=O)NC1CCN(Cc2ccccc2)CC1`, the IC50 is 530 nM.

As to `CN(C)c1ccc(CN2CCC(CNC(=O)c3cc(-c4ccccc4Cl)cs3)C2)cc1` (centres undefined), the IC50 was found to be 1440 nM.

`N#Cc1ccc(CN2CCCN(c3ccc(NC(=O)c4ccc(F)cc4)cc3)CC2)cc1` registered an IC50 of 1280 nM.

Take `OCC1CCCCN1Cc1cccc(-c2cccc(-c3nc4ccccc4[nH]3)c2)c1` (centres undefined): the IC50 was 780 nM.

Take `CNCc1ccc2nc(-c3coc(Cc4cc(Cl)ccc4OCC(C)C)n3)[nH]c2c1`: the IC50 was found to be 840 nM.

Consider `CC(=O)Oc1ccc(C(=O)Oc2ccccc2C#CC#N)cc1OC(C)=O`, for which the IC50 is 320 nM.

Turning to `COc1cc(-c2nc3ccc(N4CCN(C)CC4)cc3[nH]2)cc(OC)c1OC`, the IC50 was 1270 nM.

For the molecule `CN(C)CCCc1cc2c(cc1Cl)CCN2C(=O)Nc1ccc(-c2ccncc2)c2ccccc12`, the IC50 stood at 1180 nM.

Turning to `O=c1cc(NCCCNCc2ccc(Cl)c(Cl)c2)[nH]c2cc(Cl)ccc12`, the IC50 worked out at 920 nM.

`Cc1ccc(F)c(OCC2CCN(c3ncc(C(=O)NC4CC4)cc3Cl)CC2)c1` had an IC50 of 900 nM.

With `NC(=O)C1CCN(Cc2ccc(-c3ccc(-c4nc5ccc(C(F)(F)F)cc5[nH]4)cc3)cc2)CC1`, the IC50 turned out to be 680 nM.
